Tested on: HIV
Experiment: Anti-HIV activity (MT-4 cells, MTT)
Type: cell-based
Settings: Human immunodeficiency virus 1, MT4, 96 h, cultured 4 days
Procedure: Serial dilutions of a test sample were prepared in a 96-well microplate (50 μL/well). 2.5×10^5 cells/mL of a MT-4 cell suspension was dispensed at 100 μL/well to the plate containing the test sample. Then, an HIV virus solution was dispensed at 50 μL/well. The plate was mixed with a plate mixer and cultured for 4 days in a CO2 incubator. An MTT (3-(4,5-dimethylthiazol-2-yl)-2,5-diphenyltetrazolium bromide) solution was dispensed at 30 μL/well. The plate was reacted for 1 hour in a CO2 incubator. 150 μL of the supernatant was removed from each well so as not to take up the cells. 150 μL of a cell lysis solution was added to each well and well mixed with a plate mixer until the cells were completely lysed. The absorbance of the mixed plate was measured at two wavelengths of 560 nm and 690 nm with a microplate reader.

SMILES | EC50
CCN1C(=O)c2c(O)c(=O)c(C(=O)NCc3c(F)cc(F)cc3OC)cn2N2CCCC[C@@H]12 [II-035] | 1.3 nM
C[C@@H]1CCN2[C@@H](C1)N(C)C(=O)c1c(O)c(=O)c(C(=O)NCc3cccc(Cl)c3F)cn12 [II-036] | 3.8 nM
CCN1C(=O)c2c(O)c(=O)c(C(=O)NCc3ccc(F)cc3F)cn2N2C[C@H]3C[C@H](C3)[C@@H]12 [II-037] | 0.64 nM
CCN1C(=O)c2c(O)c(=O)c(C(=O)NCc3ccc(F)cc3F)cn2N2[C@@H](COC)CC[C@@H]12 [II-038] | 2 nM
CCN1C(=O)c2c(O)c(=O)c(C(=O)NCc3ccc(F)cc3F)cn2N2CCC(C)(C)C[C@@H]12 [II-039] | 2.9 nM
C[C@H](N1C(=O)c2c(O)c(=O)c(C(=O)NCc3ccc(F)cc3F)cn2N2CCCC[C@@H]12)C(F)(F)F [II-043] | 1.4 nM
CCN1C(=O)c2c(O)c(=O)c(C(=O)NCc3c(F)cc(F)cc3F)cn2N2CC[C@@H](C)C[C@@H]12 [II-044] | 0.84 nM
CN1C(=O)c2c(O)c(=O)c(C(=O)NCc3ccc(Cl)cc3F)cn2N2CCCC[C@@H]12 [II-045] | 2 nM
C[C@@H]1CC[C@H]2N(C)C(=O)c3c(O)c(=O)c(C(=O)NCc4cccc(Cl)c4F)cn3N12 [II-047] | 0.57 nM
CCN1C(=O)c2c(O)c(=O)c(C(=O)NCc3c(F)ccc(C#N)c3F)cn2N2CCCC[C@@H]12 [II-050] | 2.8 nM
CCN1C(=O)c2c(O)c(=O)c(C(=O)NCc3ccc(F)cc3F)cn2N2C[C@H](C)CC[C@@H]12 [II-052] | 0.62 nM
CCN1C(=O)c2c(O)c(=O)c(C(=O)NCc3c(F)cc(F)cc3F)cn2N2[C@H](C)CCC[C@@H]12 [II-053] | 1.4 nM
Cc1c(F)ccc(CNC(=O)c2cn3c(c(O)c2=O)C(=O)N(C)[C@@H]2CCCCN23)c1F [II-054] | 0.34 nM
CCN1C(=O)c2c(O)c(=O)c(C(=O)NCc3ccc(F)cc3F)cn2N2CC[C@H](COC)C[C@@H]12 [II-055] | 0.58 nM
CCN1C(=O)c2c(O)c(=O)c(C(=O)NCc3ccc(F)nc3F)cn2N2C[C@@H]3CC[C@@H](C3)[C@@H]12 [II-056] | 0.83 nM
CCN1C(=O)c2c(O)c(=O)c(C(=O)NCc3ccc(F)nc3F)cn2N2CCCC[C@@H]12 [II-057] | 1.7 nM
C[C@H]1CCN2[C@@H](C1)N(C)C(=O)c1c(O)c(=O)c(C(=O)NCc3cccc(Cl)c3F)cn12 [II-058] | 0.79 nM
CCN1C(=O)c2c(O)c(=O)c(C(=O)NCc3ccc(F)cc3F)cn2N2C[C@H](OC)CC[C@@H]12 [II-059] | 0.66 nM
C[C@H]1CCN2[C@@H](C1)N(C)C(=O)c1c(O)c(=O)c(C(=O)NCc3ccc(Cl)cc3F)cn12 [II-061] | 3.4 nM
CCN1C(=O)c2c(O)c(=O)c(C(=O)NCc3ccnc(Cl)c3F)cn2N2CCCC[C@@H]12 [II-062] | 3.2 nM
CN1C(=O)c2c(O)c(=O)c(C(=O)NCc3cccc(Cl)c3F)cn2N2Cc3ccccc3[C@@H]12 [II-063] | 3.6 nM
CC(C)N1C(=O)c2c(O)c(=O)c(C(=O)NCc3c(F)cc(F)cc3F)cn2N2CC[C@@H](C)C[C@@H]12 [II-064] | 1.2 nM
C[C@H]1C[C@H]2N(C)C(=O)c3c(O)c(=O)c(C(=O)NCc4ccc(Cl)cc4F)cn3N2C1 [II-065] | 4.9 nM

SMILES | EC50
CCN1C(=O)c2c(O)c(=O)c(C(=O)NCc3ccc(F)cc3F)cn2N2CCC3(C[C@@H]12)OCCO3 [II-067] | 0.62 nM
CCN1C(=O)c2c(O)c(=O)c(C(=O)NCc3ccc(F)cc3F)cn2N2[C@H](C)CC[C@@H]12 [II-068] | 0.61 nM
CCN1C(=O)c2c(O)c(=O)c(C(=O)NCc3c(F)cc(F)cc3F)cn2N2CC[C@H](C)C[C@@H]12 [II-069] | 0.9 nM
CCN1C(=O)c2c(O)c(=O)c(C(=O)NCc3ccc(F)cc3F)cn2N2CC[C@H](C)[C@@H]12 [II-073] | 0.25 nM
CN1C(=O)c2c(O)c(=O)c(C(=O)NCc3ccc(F)c(F)c3F)cn2N2CCCC[C@@H]12 [II-074] | 0.71 nM
C[C@@H]1CCN2[C@@H](C1)N(C)C(=O)c1c(O)c(=O)c(C(=O)NCc3ccc(Cl)cc3F)cn12 [II-075] | 6.3 nM
CCN1C(=O)c2c(O)c(=O)c(C(=O)NCc3ncc(Cl)cc3F)cn2N2CCCC[C@@H]12 [II-076] | 3.3 nM
CCN1C(=O)c2c(O)c(=O)c(C(=O)NCc3ccc(F)cc3F)cn2N2[C@@H]3CCC[C@@H]3CC[C@@H]12 [II-078] | 1.1 nM
CCN1C(=O)c2c(O)c(=O)c(C(=O)NCc3ccc(F)cc3F)cn2N2Cc3ccc(F)cc3[C@@H]12 [II-079] | 0.66 nM
CCN1C(=O)c2c(O)c(=O)c(C(=O)NCc3c(F)ccc(F)c3F)cn2N2CCCC[C@@H]12 [II-080] | 0.58 nM
CCN1C(=O)c2c(O)c(=O)c(C(=O)NCc3ccc(F)nc3F)cn2N2CC[C@H](C)C[C@@H]12 [II-081] | 3.1 nM
CCN1C(=O)c2c(O)c(=O)c(C(=O)NCc3c(F)cccc3F)cn2N2CCCC[C@@H]12 [II-082] | 0.74 nM
CCN1C(=O)c2c(O)c(=O)c(C(=O)NCc3ccc(F)cc3F)cn2N2C[C@@H]3C[C@@H]3[C@@H]12 [II-083] | 0.95 nM
CCN1C(=O)c2c(O)c(=O)c(C(=O)NCc3ccc(F)cc3F)cn2N2Cc3ccc(Cl)cc3[C@@H]12 [II-084] | 1.8 nM
CCN1C(=O)c2c(O)c(=O)c(C(=O)NCc3ccc(F)cc3F)cn2N2CCC(C)(C)[C@@H]12 [II-085] | 1.3 nM
C[C@@H]1CCN2[C@@H](C1)N(C)C(=O)c1c(O)c(=O)c(C(=O)NCc3ccc(F)cc3F)cn12 [II-086] | 1 nM
CCN1C(=O)c2c(O)c(=O)c(C(=O)NCc3ccc(F)cc3F)cn2N2CCN(CCOC)C[C@@H]12 [II-088] | 3.1 nM
CC[C@@H]1CC[C@H]2N(CC)C(=O)c3c(O)c(=O)c(C(=O)NCc4ccc(F)cc4F)cn3N12 [II-089] | 0.94 nM
C[C@@H]1CCC[C@H]2N(C)C(=O)c3c(O)c(=O)c(C(=O)NCc4ccc(Cl)cc4F)cn3N12 [II-091] | 4.1 nM
CCN1C(=O)c2c(O)c(=O)c(C(=O)NCc3ccccc3F)cn2N2CCCC[C@@H]12 [II-092] | 0.33 nM
C[C@@H]1CCC[C@H]2N(C)C(=O)c3c(O)c(=O)c(C(=O)NCc4c(F)cc(F)cc4F)cn3N12 [II-094] | 0.57 nM
CCN1C(=O)c2c(O)c(=O)c(C(=O)NCc3ncc(F)cc3Cl)cn2N2CCCC[C@@H]12 [II-095] | 1.9 nM

Continued, values first:

EC50 | SMILES
0.68 nM | CCN1C(=O)c2c(O)c(=O)c(C(=O)NCc3ccc(F)cc3F)cn2N2CCOCC[C@@H]12 [II-096]
1 nM | CCN1C(=O)c2c(O)c(=O)c(C(=O)NCc3c(F)cc(F)cc3F)cn2N2Cc3ccccc3[C@@H]12 [II-097]
4 nM | CCN1C(=O)c2c(O)c(=O)c(-c3nnc(Cc4ncc(Cl)cc4F)s3)cn2N2CCCC[C@@H]12 [II-098]
3 nM | CCN1C(=O)c2c(O)c(=O)c(C(=O)NCc3ccc(F)cc3F)cn2N2CCN(Cc3ccccc3)C[C@@H]12 [II-100]
1.6 nM | CCN1C(=O)c2c(O)c(=O)c(C(=O)NCc3ccc(F)cc3F)cn2N2CCN(CC3CC3)C[C@@H]12 [II-101]
3.7 nM | CN1C(=O)c2c(O)c(=O)c(C(=O)NCc3ccnc(Cl)c3F)cn2N2CCCC[C@@H]12 [II-103]
2.3 nM | CCN1C(=O)c2c(O)c(=O)c(C(=O)NCc3ccc(F)cc3F)cn2N2CCCOC[C@@H]12 [II-107]
2.4 nM | CCN1C(=O)c2c(O)c(=O)c(C(=O)NCc3ccc(F)cc3F)cn2N2CC=C[C@@H]12 [II-109]
2.1 nM | CCN1C(=O)c2c(O)c(=O)c(C(=O)NCc3ccc(F)cc3F)cn2N2CCN(C(=O)NC)C[C@@H]12 [II-110]
0.72 nM | C[C@H]1CCN2[C@@H](C1)N(C)C(=O)c1c(O)c(=O)c(C(=O)NCc3ccc(F)cc3F)cn12 [II-113]
1.5 nM | CCN1C(=O)c2c(O)c(=O)c(C(=O)NCc3ccc(F)cc3F)cn2N2CC[C@H](C(F)(F)F)C[C@@H]12 [II-114]
0.87 nM | CN1C(=O)c2c(O)c(=O)c(C(=O)NCc3c(F)cc(F)cc3F)cn2N2C[C@@H]3CC[C@@H](O3)[C@@H]12 [II-115]
0.68 nM | CN1C(=O)c2c(O)c(=O)c(C(=O)NCc3ccc(F)cc3F)cn2N2Cc3ccccc3[C@@H]12 [II-116]
2 nM | C[C@H]1CC[C@H]2N(C)C(=O)c3c(O)c(=O)c(C(=O)NCc4ccc(F)cc4F)cn3N2C1 [II-117]
2.2 nM | CCN1C(=O)c2c(O)c(=O)c(C(=O)NCc3ccc(F)cc3F)cn2N2C3CCC(CC3)[C@@H]12 [II-118]
0.54 nM | COC[C@@H]1CC[C@H]2N(C)C(=O)c3c(O)c(=O)c(C(=O)NCc4ccc(F)cc4F)cn3N12 [II-119]
0.22 nM | CN1C(=O)c2c(O)c(=O)c(C(=O)NCc3c(F)cc(F)cc3F)cn2N2Cc3ccccc3[C@@H]12 [II-120]
0.71 nM | C[C@H]1C[C@H]2N(C)C(=O)c3c(O)c(=O)c(C(=O)NCc4ccc(F)cc4F)cn3N2C1 [II-121]
0.61 nM | CN1C(=O)c2c(O)c(=O)c(C(=O)NCc3ccc(F)cc3F)cn2N2C[C@@H]3CC[C@@H](C3)[C@@H]12 [II-122]
1.6 nM | CCN1C(=O)c2c(O)c(=O)c(C(=O)NCc3ccc(F)cc3F)cn2N2C[C@H](C)C[C@@H]12 [II-123]
2.6 nM | CCN1C(=O)c2c(O)c(=O)c(C(=O)NCc3ccc(F)cc3F)cn2N2Cc3cc(Cl)ccc3[C@@H]12 [II-124]
1.3 nM | CCN1C(=O)c2c(O)c(=O)c(C(=O)NCc3ccc(F)cc3F)cn2N2CCN(C(=O)OC)C[C@@H]12 [II-125]
0.45 nM | CCN1C(=O)c2c(O)c(=O)c(C(=O)NCc3ccc(F)cc3F)cn2N2C[C@@H](OC)CC[C@@H]12 [II-126]
3.6 nM | CCN1C(=O)c2c(O)c(=O)c(C(=O)NCc3ccccc3OC(F)F)cn2N2CCCC[C@@H]12 [II-127]
0.72 nM | CCN1C(=O)c2c(O)c(=O)c(C(=O)NCc3ccc(F)cc3F)cn2N2Cc3cc(F)ccc3[C@@H]12 [II-128]
1.9 nM | CCN1C(=O)c2c(O)c(=O)c(C(=O)NCc3ccccc3OC)cn2N2CCCC[C@@H]12 [II-129]
